Data as given in US6875569B2, “Modified lepidopteran receptors and hybrid multifunctional proteins for use in transcription and regulation of transgene expression” (The Salk Institute for Biological Studies, priority 1997, dated 2005).
Entries after “also recorded” stand apart in the source; their conditions may differ. Like-named read-outs stand apart in the source and are kept apart here.

Experiments:
[1] = test system: modified bombyx hormone receptor (VbR); type: cell-based, bombyx mori
Procedure: (§1) Transient transfection experiments in CV-1 cells or 293 cells using modified drosophila ecdysone receptor (VdEcR) or modified bombyx hormone receptor (VbR) with or without dimer partners as described. Luc activity is examined 40 hours after transfection and stimulation with ligand (FIG. 2A). Both receptors are assayed in CV-1 cells with 1 μM MurA and no exogenous dimer partner. […] Both receptors are also assayed in the presence of 5 μg/ml tebufenozide (FIG. 2B). […] Both receptors are also assayed with and without dimer partners. VbR was stimulated with 5 μg/ml tebufenozide and VdEcR was stimulated with 1 μM MurA. […] VbR, with no exogenous dimer partner, has an extremely low base-line which is stimulated 200-300 fold by ligand. Note also from this experiment that VdEcR tends to have a much higher baseline than VbR without dimer partner.
(§2) Tebufenozide is administered to cells co-transfected with nucleic acids encoding receptors: LINX (which encodes the tet-transactivator (TTA)), VbR, TTMT (which encodes the TTA-VbR fusion protein, and TTMT-2V which is like TTMT, but with two VP16 t-domains), to assay for EcRELuc activity (FIG. 2C). Note that teb stimulates VbR, and the TTMT fusions, but has no action on TTA (LINX). The same experiment as that described for 2C, only with a TetO-Luc reporter which responds only to TTA or fusion proteins is summarized in FIG. 2D. […] Note that in this experiment, TTMT and TTMT-2V work better than TTA only (LINX) to stimulate the TetO-luc promoter/reporter. […] An experiment on CV-1 cells transfected with TTMT and two reporters: 6TetO-luc and 4-EcRE-bgalactosidase show both promoters could be simultaneously influenced by the presence or absence of both ligands (FIG. 2E).
Transient transfections are performed by calcium-phosphate coprecipitation employing standard methods (see Sambrook et al., in Molecular Cloning: A Laboratory Manual. Cold Spring Harbor Press, New York, N.Y. (1989)). All tissue culture experiments are performed using DMEM 10% FBS in a 10% CO2 incubator unless otherwise specified. All transfections are performed in triplicate in 24-well Costar plates using CV-1 cells at an approximately 5×10^4 plating density. Immediately following transfection, 1 μm ligand in 20% EtOH/PBS is added to wells. After 40 additional hours of incubation, cells are harvested and luciferase activity measured in an analytical bioluminescence photometer. Cell extracts are simultaneously examined for LacZ activity of the internal control by standard methods. Bar graph levels represent relative luciferase activity after correction using internal control values.

[2] = test system: modified drosophila ecdysone receptor (VdEcR); type: cell-based
Procedure: as §1
(§3) Transient transfections are performed by calcium-phosphate coprecipitation employing standard methods (see Sambrook et al., in Molecular Cloning: A Laboratory Manual. Cold Spring Harbor Press, New York, N.Y. (1989)). All tissue culture experiments are performed using DMEM 10% FBS in a 10% CO2 incubator unless otherwise specified. […] After 40 additional hours of incubation, cells are harvested and luciferase activity measured in an analytical bioluminescence photometer. […]

[3] = target: T1, tet-transactivator (TTA) (Escherichia coli, UniProt P04483); test: EcRE-Luc reporter co-transfected with LINX; type: cell-based; conditions: FIG. 2C
T1 construct: expressed in transfected cells; host or cells: CV-1 cells
Procedure: as §2, §3

[4] = test system: TTMT (TTA-VbR fusion protein); test: EcRE-Luc reporter co-transfected with TTMT; type: cell-based; conditions: FIG. 2C
Procedure: as §2, §3

[5] = test system: TTMT-2V (TTMT with two VP16 t-domains); test: EcRE-Luc reporter co-transfected with TTMT-2V; type: cell-based; conditions: FIG. 2C
Procedure: as §2, §3

[6] = test system: VbR; test: Transgene regulation in stably infected rat fibroblasts (MARSHA reporter, VbR retroviral vector); type: cell-based, bombyx mori; conditions: 0.25 μg/ml teb vs higher levels; VbR-luc clonal fibroblast line and VbR-GH clonal line, FIG. 3; listed as teb
[7] = test system: mammals and other non-insect species; conditions: extensive testing in animal hosts; previously reported; cited from earlier work

T1 sequence (P04483 whole entry, added parts left off): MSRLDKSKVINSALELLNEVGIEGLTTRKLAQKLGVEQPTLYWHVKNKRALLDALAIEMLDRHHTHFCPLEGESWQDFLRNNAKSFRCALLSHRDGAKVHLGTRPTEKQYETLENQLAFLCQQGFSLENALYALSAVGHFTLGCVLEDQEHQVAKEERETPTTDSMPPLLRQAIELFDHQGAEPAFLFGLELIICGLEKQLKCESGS

Row | SMILES | stimulation of VbR, side-by side comparison ([1]; 1 μM MurA) | response of bR (Luc activity) ([1]; CV-1 cells, 1 μM MurA, no exogenous dimer partner) | dimer partner requirement for VdEcR stimulation ([2]; 1 μM MurA, with and without dimer partners) | stimulation of VbR, side-by side comparison ([1]; 2.5 μg/ml teb) | stimulation of VbR over base-line by ligand ([1]; 5 μg/ml tebufenozide, VbR with no exogenous dimer partner, experiment with and without dimer partners) | effect of ligand on VbR in the presence of exogenous dimer partner ([1]; 5 μg/ml tebufenozide, exogenous dimer partner (RXR, Usp) present, VbR constitutively activated) | induction of Luc activity by VbR ([1]; 5 μg/ml tebufenozide, no exogenous dimer partner, 40 hours after transfection) | EcRE-Luc activity with VbR ([1]; EcRE-Luc reporter, FIG. 2C) | response of drosophila EcR (Luc activity) ([2]; 5 μg/ml tebufenozide) | EcRE-Luc activity with TTA (LINX) [3] | EcRE-Luc activity with TTMT [4] | EcRE-Luc activity with TTMT-2V [5] | stimulation of full transgene activity, dose comparison [6] | toxicity to mammals [7]
1 | CC(C)CC[C@@H](O)[C@](C)(O)[C@H]1CC[C@@]2(O)C3=CC(=O)[C@]4(O)C[C@@H](O)[C@@H](O)C[C@]4(C)[C@H]3[C@H](O)C[C@]12C [MurA, muristerone A] | effective at stimulating VbR | responds | RXR and Usp are necessary for VdEcR | – | – | – | – | – | – | – | – | – | – | –
2 | CCc1ccc(C(=O)NN(C(=O)c2cc(C)cc(C)c2)C(C)(C)C)cc1 [tebufenozide] | – | – | – | effective at stimulating VbR | 200-300 fold | inhibited by ligand addition | greater than 200 fold | stimulates | does not respond at all, and in fact, decreases slightly; also recorded: responds weakly, if at all | no action | stimulates | stimulates | as effective at stimulating full activity as higher levels; also recorded: as effective as higher levels for stimulating full activity | very low toxicity
